Data taken from patent publication US6617315B1, “Therapeutic compounds” (priority 1996, dated 2003).

Legend:
[1] = test system: HCMV strain AD169; test: Human Cytomegalovirus (HCMV) assay, antiviral effect by HCMV DNA hybridization; format: cell-based; conditions: HCMV strain AD169 on MRC5 cell monolayers, 96 well plates, 5 days incubation, HCMV DNA by blotting and quantitative specific DNA hybridization
Protocol: Human Cytomegalovirus (HCMV) Assay
(§1) HCMV strain AD169 was grown on monolayers of human embryonic lung cells (MRC5 cells) in 96 well plates. After infection of the cells at a ratio of approximately 0.01 infectious virus particals per cell, the compounds to be tested were added to selected wells at six different concentrations, each in triplicate The same concentrations of compound were also applied to wells containing monolayers of uninfected cells in order to assess compound cytotoxicity. The plates were incubated for 5 days, and the minimum cytotoxic dose was estimated from microscopic examination. The IC50 for antiviral effect was estimated from measurements of HCMV DNA in each well by blotting and quantitative specific DNA hybridization, similar to the method of Gadler. (Antimicrob. Agents Chemother. 1983, 24, 370-374).

[2] = test system: MRC5 cells; test: Compound cytotoxicity on uninfected MRC5 cell monolayers; format: cell-based, human
Protocol: as §1

[3] = as above; format: cell-based, human; conditions: uninfected MRC5 cell monolayers (human embryonic lung cells); uninfected human embryonic lung cells (MRC5), 5 days incubation, estimated from microscopic examination; read-out: MRC5 tox CC50
Protocol: as §1

Molecule	IC50 [1]	CC50 [2]	IC50 ([1]; Human betaherpesvirus 5, 120 h)	CC50 at 5 days [3]	melting point
2-(Isopropylamino)-4,5,6-trichloro-1-(beta-L-erythro-pentofuranosyl)-1H-benzimidazole [Example 58]	0.15 µM	20 µM			
C[C@@H]1O[C@H](n2c(NC3CC3)nc3cc(Cl)c(Cl)cc32)[C@@H](O)[C@H]1O [Example 1, 2-Cyclopropylamino-5,6-dichloro-1-(5-deoxy-beta-L-ribofuranosyl)-1H-benzimidazole]			2.1 µM	100 µM	186 to 187 °C
CC(C)Nc1nc2cc(Cl)c(Cl)cc2n1[C@H]1O[C@@H](C)[C@H](O)[C@@H]1O [Example 3, 2-Isopropylamino-5,6-dichloro-1-(5-deoxy-beta-L-ribofuranosyl)-1H-benzimidazole]			0.6 µM	30 µM	103 to 105 °C
C[C@@H]1O[C@H](n2c(Br)nc3cc(Cl)c(Cl)cc32)[C@@H](O)[C@H]1O [Example 4, 2-Bromo-5,6-dichloro-1-(5-deoxy-beta-L-ribofuranosyl)-1H-benzimidazole]					136 to 138 °C
CC(C)Nc1nc2cc(Cl)c(Cl)cc2n1[C@H]1O[C@@H](CCl)[C@H](O)[C@@H]1O [Example 12, 1-(5-Chloro-5-deoxy-beta-L-ribofuranosyl)-5,6-dichloro-2-isopropylamino-1H-benzimidazole]			1.4 µM	30 µM	95 to 97 °C
CC(C)(C)Nc1nc2cc(Cl)c(Cl)cc2n1[C@H]1O[C@@H](CCl)[C@H](O)[C@@H]1O [Example 14, 2-tert-Butylamino-1-(5-Chloro-5-deoxy-beta-L-ribofuranosyl)-5,6-dichloro-1H-benzimidazole]			1 µM	30 µM	112 to 114 °C
CC(C)Nc1nc2cc(Cl)c(Cl)cc2n1[C@H]1O[C@@H](CO)C[C@@H]1O [Example 16, 5,6-Dichloro-1-(3-deoxy-beta-L-ribofuranosyl)-2-isopropylamino-1H-benzimidazole]			0.2 µM	100 µM	153 to 155 °C
CC(C)Nc1nc2cc(Cl)c(Cl)cc2n1[C@@H]1C[C@@H](O)[C@H](CO)O1 [Example 19, 5,6-Dichloro-1-(2-deoxy-beta-L-erythro-pentofuranosyl)-2-isopropylamino-1H-benzimidazole]			0.1 µM	100 µM	114 to 115 °C
CC(C)Nc1nc2c(Cl)c(Cl)c(Cl)cc2n1[C@H]1O[C@@H](CO)[C@H](O)[C@@H]1O [Example 31, 2-(Isopropylamino)-4,5,6-trichloro-1-(beta-L-ribofuranosyl)-1H-benzimidazole]					223 to 224 °C
CC(C)Nc1nc2c(Br)c(Cl)c(Cl)cc2n1[C@H]1O[C@@H](CO)[C@H](O)[C@@H]1O [Example 39, 4-Bromo-5,6-dichloro-2-(isopropylamino)-1-(beta-L-ribofuranosyl)-1H-benzimidazole]					221 to 222 °C
CC(C)Nc1nc2cc(F)c(F)cc2n1[C@H]1O[C@@H](CO)[C@H](O)[C@@H]1O [Example 46, 5,6-Difluoro-2-(isopropylamino)-1-(beta-L-ribofuranosyl)-1H-benzimidazole]					156 to 158 °C
CC(C)Nc1nc2c(Cl)cccc2n1[C@H]1O[C@@H](CO)[C@H](O)[C@@H]1O [Example 50, 4-Chloro-2-(isopropylamino)-1-(beta-L-ribofuranosyl)-1H-benzimidazole]					225 to 227 °C
CC(C)Nc1nc2c(Cl)cc(Cl)cc2n1[C@H]1O[C@@H](CO)[C@H](O)[C@@H]1O [Example 53, 4,6-Dichloro-2-(isopropylamino)-1-(beta-L-ribofuranosyl)-1H-benzimidazole]			0.15 µM	100 µM	212 to 214 °C
